Data reported in US12600726B2, “Antagonists of the muscarinic acetylcholine receptor M4” (Vanderbilt University, priority 2017, dated 2026).
pIC50: −log10 of the molar value.

Tests used:
Human M4 = target: T1, Human M4 (Homo sapiens, UniProt P08173); assay: mAChR M4 cell-based functional calcium flux assay (human M4/Gqi5/CHO cells); conditions: for Emin (human M4): % ACh maximum at 30 μM; for pIC50: decrease of the response to an EC80 concentration of acetylcholine
T1 construct: expressed in transfected cells; host or cells: CHO-K1 (ATCC), stably expressing M4 and Gqi5
T1 sequence (P08173 1-479): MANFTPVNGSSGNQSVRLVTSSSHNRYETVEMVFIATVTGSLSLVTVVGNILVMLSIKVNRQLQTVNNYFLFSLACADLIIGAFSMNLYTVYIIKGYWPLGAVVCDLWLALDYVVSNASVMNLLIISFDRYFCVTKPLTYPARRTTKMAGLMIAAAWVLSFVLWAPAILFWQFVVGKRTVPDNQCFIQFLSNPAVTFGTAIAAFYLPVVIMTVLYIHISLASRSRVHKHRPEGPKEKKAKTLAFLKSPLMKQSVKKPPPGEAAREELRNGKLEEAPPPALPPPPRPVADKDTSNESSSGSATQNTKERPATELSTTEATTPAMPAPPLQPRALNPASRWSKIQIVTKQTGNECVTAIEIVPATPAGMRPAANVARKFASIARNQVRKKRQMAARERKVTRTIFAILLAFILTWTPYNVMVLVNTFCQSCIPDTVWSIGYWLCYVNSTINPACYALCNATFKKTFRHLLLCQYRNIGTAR
Method in brief: (§1)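 CHO-K1 cells stably co-expressing M4 of the given species with chimeric Gqi5 were loaded with Fluo-4 AM and read for calcium flux. Compounds (10-point, 1:3 dilutions) were added first, followed by an acetylcholine EC20 at 143 s and an EC80 at 268 s. IC50 reflects the concentration-dependent fall in the EC80 response, fitted with a four-parameter logistic.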

Rat M4 = target: T2, Rat M4 (Rattus norvegicus, UniProt P08485); assay: mAChR M4 cell-based functional calcium flux assay (rat M4/Gqi5/CHO cells); conditions: for Emin (rat M4): % ACh maximum at 30 μM; for pIC50: decrease of the response to an EC80 concentration of acetylcholine
T2 construct: expressed in transfected cells; host or cells: CHO-K1 (ATCC), stably expressing M4 and Gqi5
T2 sequence (P08485 1-478): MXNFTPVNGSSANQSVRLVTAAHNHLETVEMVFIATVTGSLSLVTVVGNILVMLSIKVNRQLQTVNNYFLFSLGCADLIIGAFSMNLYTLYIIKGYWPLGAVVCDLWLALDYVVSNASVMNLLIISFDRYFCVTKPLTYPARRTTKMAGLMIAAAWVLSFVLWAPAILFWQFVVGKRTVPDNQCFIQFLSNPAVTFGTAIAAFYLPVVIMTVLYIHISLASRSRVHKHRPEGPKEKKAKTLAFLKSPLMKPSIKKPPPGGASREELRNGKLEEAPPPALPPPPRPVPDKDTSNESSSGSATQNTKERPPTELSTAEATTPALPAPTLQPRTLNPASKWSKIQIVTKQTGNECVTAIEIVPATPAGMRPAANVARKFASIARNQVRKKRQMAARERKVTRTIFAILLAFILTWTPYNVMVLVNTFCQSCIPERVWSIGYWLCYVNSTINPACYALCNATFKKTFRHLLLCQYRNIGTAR
Method in brief: as §1

Emin (human M4) (Human M4) | pIC50 (Human M4) | Emin (rat M4) (Rat M4) | pIC50 (Rat M4) | IC50 (Rat M4; cells printed in μM, decrease of the EC80 acetylcholine response) | SMILES
4% | 7.00 | 7% | 6.16 | – | Cc1cnn(C)c1-c1ccc(N(C)CC2CC23CCN(CCC(C)(C)C)CC3)nn1 (stereo not shown) [Compound 76, 6-(1,4-dimethyl-1H-pyrazol-5-yl)-N-((6-(3,3-dimethylbutyl)-6-azaspiro[2.5]octan-1-yl)methyl)-N-methylpyridazin-3-amine]
2.54% | 7.37 | 3.35% | 6.80 | – | CC(C)(C)CCN1CCC2(CC1)CC2CNc1ccc(-c2ccc(F)cc2)nn1 (stereo not shown) [Compound 2, N-((6-(3,3-Dimethylbutyl)-6-azaspiro[2.5]octan-1-yl)methyl)-6-(4-fluorophenyl)pyridazin-3-amine]
3.65% | 7.52 | 4.56% | 6.72 | – | Cc1nn(C)cc1-c1cnc(NCC2CC23CCN(CC2CC4C=CC2C4)CC3)cn1 (stereo not shown) [Compound 21, N-[[6-(5-bicyclo[2.2.1]hept-2-enylmethyl)-6-azaspiro[2.5]octan-2-yl]methyl]-5-(1,3-dimethylpyrazol-4-yl)pyrazin-2-amine]
16.7% | 5.54 | 45.7% | – | > 10 µM | Cc1nn(C)cc1-c1ccc(NCC2CC23CCN(CC2CC2)CC3)nn1 (stereo not shown) [Compound 55, N-[[6-(cyclopropylmethyl)-6-azaspiro[2.5]octan-2-yl]methyl]-6-(1,3-dimethylpyrazol-4-yl)pyridazin-3-amine]
2.15% | 7.41 | 2.40% | 6.66 | – | CC(CN1CCC2(CC1)CC2CNc1ccc(-c2cc(F)ccc2Cl)nn1)C(C)(C)C (stereo not shown) [Compound 12, 6-(2-chloro-5-fluoro-phenyl)-N-[[6-(2,3,3-trimethylbutyl)-6-azaspiro[2.5]octan-2-yl]methyl]pyridazin-3-amine]
3.54% | 7.94 | 5.67% | 6.70 | – | Cc1nn(C)cc1-c1ccc(NCC2CC23CCN(CC2CCOCC2)CC3)nn1 (stereo not shown) [Compound 61, 6-(1,3-dimethylpyrazol-4-yl)-N-[[6-(tetrahydropyran-4-ylmethyl)-6-azaspiro[2.5]octan-2-yl]methyl]pyridazin-3-amine]
3% | 7.40 | 3% | 7.03 | – | CC(C)(C)CCN1CCC2(CC1)CC2CNc1ccc(N2CCC(F)(F)CC2)nn1 (stereo not shown) [Compound 80, 6-(4,4-difluoro-1-piperidyl)-N-[[6-(3,3-dimethylbutyl)-6-azaspiro[2.5]octan-2-yl]methyl]pyridazin-3-amine]
2.29% | 7.81 | 2.82% | 6.93 | – | CC(C)(C)CCN1CCC2(CC1)CC2CNc1ccc(-c2cc(F)ccc2Cl)nn1 (stereo not shown) [Compound 13, 6-(2-chloro-5-fluoro-phenyl)-N-[[6-(3,3-dimethylbutyl)-6-azaspiro[2.5]octan-2-yl]methyl]pyridazin-3-amine]
2.62% | 7.90 | 4.33% | 7.09 | – | Fc1ccc(Cl)c(-c2ccc(NC[C@@H]3CC34CCN(CC3CCCCC3)CC4)nn2)c1 [Compound 65, (R)-6-(2-chloro-5-fluoro-phenyl)-N-[[6-(cyclohexylmethyl)-6-azaspiro[2.5]octan-2-yl]methyl]pyridazin-3-amine]
2.44% | 7.03 | 3.13% | 6.30 | – | Fc1ccc(Cl)c(-c2ccc(NCC3CC34CCN(CC35CC6CC(CC(C6)C3)C5)CC4)nn2)c1 (stereo not shown) [Compound 16, N-[[6-(1-adamantylmethyl)-6-azaspiro[2.5]octan-2-yl]methyl]-6-(2-chloro-5-fluoro-phenyl)pyridazin-3-amine]
2.97% | 8.34 | 3.40% | 7.76 | – | CC(=O)Nc1ccc(-c2ccc(NCC3CC34CCN(CCC(C)(C)C)CC4)nn2)cc1 (stereo not shown) [Compound 40, N-[4-[6-[[[6-(3,3-dimethylbutyl)-6-azaspiro[2.5]octan-2-yl]methyl]amino]pyridazin-3-yl]phenyl]acetamide]
6% | 7.47 | 7% | 6.44 | – | c1cc(N2CCOCC2)nnc1NCC1CC12CCN(CC1CCCCC1)CC2 (stereo not shown) [Compound 83, N-[[6-(cyclohexylmethyl)-6-azaspiro[2.5]octan-2-yl]methyl]-6-morpholino-pyridazin-3-amine]
3.87% | 6.99 | 3.97% | 6.50 | – | Cc1nn(C)cc1-c1ccc(NCC2CC23CCN(CCC(C)(C)C)CC3)nc1 (stereo not shown) [Compound 6, N-[[6-(3,3-dimethylbutyl)-6-azaspiro[2.5]octan-2-yl]methyl]-5-(1,3-dimethylpyrazol-4-yl)pyridin-2-amine]
3% | 7.17 | 9% | 7.36 | – | CC(=O)Nc1ccc(-c2ccc(NC[C@@H]3CC34CCN(CC3CCOCC3)CC4)nn2)cc1 [Compound 121, N-[4-[6-[[(2R)-6-(tetrahydropyran-4-ylmethyl)-6-azaspiro[2.5]octan-2-yl]methylamino]pyridazin-3-yl]phenyl]acetamide]
2.48% | 7.40 | 2.09% | 6.96 | – | CC(C)(C)CCN1CCC2(CC1)CC2CNc1ccc(-c2cc(F)cc(F)c2)nn1 (stereo not shown) [Compound 33, 6-(3,5-difluorophenyl)-N-[[6-(3,3-dimethylbutyl)-6-azaspiro[2.5]octan-2-yl]methyl]pyridazin-3-amine]
4.23% | 6.57 | 19.9% | 5.35 | – | Cc1cccnc1CN1CCC2(CC1)CC2CNc1ccc(-c2cn(C)nc2C)nn1 (stereo not shown) [Compound 62, 6-(1,3-dimethylpyrazol-4-yl)-N-[[6-[(3-methyl-2-pyridyl)methyl]-6-azaspiro[2.5]octan-2-yl]methyl]pyridazin-3-amine]
3.93% | 6.94 | 12.3% | 5.72 | – | Cc1nn(C)cc1-c1ccc(NCC2CC23CCN(CC2CCCOC2)CC3)nn1 (stereo not shown) [Compound 60, 6-(1,3-dimethylpyrazol-4-yl)-N-[[6-(tetrahydropyran-3-ylmethyl)-6-azaspiro[2.5]octan-2-yl]methyl]pyridazin-3-amine]
3.82% | 6.01 | 12.1% | 5.53 | – | Fc1ccc(Cl)c(-c2ccc(NCC3CC34CCN(CC(c3ccccc3)c3ccccc3)CC4)nn2)c1 (stereo not shown) [Compound 17, 6-(2-chloro-5-fluoro-phenyl)-N-[[6-(2,2-diphenylethyl)-6-azaspiro[2.5]octan-2-yl]methyl]pyridazin-3-amine]
5% | 8.30 | 5% | 7.86 | – | CC(C)(C)CCN1CCC2(CC1)CC2CNc1ccc(N2CCOCC2)nn1 (stereo not shown) [Compound 79, N-[[6-(3,3-dimethylbutyl)-6-azaspiro[2.5]octan-2-yl]methyl]-6-morpholino-pyridazin-3-amine]
